Reference: patent publication US10351565B2, “Therapeutic compounds for pain and synthesis thereof” (priority 2015, dated 2019)
Values joined by “and” are separate entries in the source; they are usually repeats but may differ in a detail not shown here. Equal values may be shown once.

Tests used:
neuropathic pain in mice [1] = assay: Taxol mouse model of neuropathic pain, repeated daily administration; assay type: in vivo
Text: (§1) Table 7 summarizes the activity of Formula 1 in mice models of neuropathic pain following repeated daily administration using different routes of administration.

neuropathic pain in mice [2] = assay: CCI mouse model of neuropathic pain, repeated daily administration; assay type: in vivo; details: for Dose of maximum activity: doses tested 150 mg/kg
Text: as §1

[3] = PO, 30 mg/kg, repeated daily administration
[4] = SC, doses tested 1, 3, 10 mg/kg, repeated daily administration
[5] = SC, 150 mg/kg, repeated daily administration

| SMILES | Duration of activity at maximum effect (neuropathic pain in mice [1]; [3]) | Level of activity (% of maximum effect- baseline) (neuropathic pain in mice [1]; [3]) | Peak of activity (T) (neuropathic pain in mice [1]; [3]) | Dose of maximum activity (neuropathic pain in mice [1]; PO, doses tested 30 mg/kg) | Dose of maximum activity (neuropathic pain in mice [1]; SC, doses tested 1, 3, 10 mg/kg) | Duration of activity at maximum effect (neuropathic pain in mice [1]; [4]) | Level of activity (% of maximum effect- baseline) (neuropathic pain in mice [1]; [4]) | Dose of maximum activity (neuropathic pain in mice [2]; IP) | Duration of activity at maximum effect (neuropathic pain in mice [2]; [5]) | Level of activity (% of maximum effect- baseline) (neuropathic pain in mice [2]; [5]) | Peak of activity (T) (neuropathic pain in mice [2]; [5]) | Dose of maximum activity (neuropathic pain in mice [2]; SC) | Dose of maximum activity (neuropathic pain in mice [1]; PO, doses tested 150 mg/kg) | Dose of maximum activity (neuropathic pain in mice [1]; SC, doses tested 150 mg/kg) |
| --- | --- | --- | --- | --- | --- | --- | --- | --- | --- | --- | --- | --- | --- | --- |
| COc1ccc2cc(CN3[C@@H]4C[C@@H]5C[C@H]3[C@H](OC(=O)C(C)(C)C)C4N(C(=O)CC(F)(F)F)C5)ccc2c1 (stereo partly drawn) [Formula 1, (2S,3S,6R,7aR)-1-((6-methoxynaphthalen-2-yl)methyl)-4-(3,3,3-trifluoropropanoyl)octahydro-1H-2,6-methanopyrrolo[3,2-b]pyridin-3-yl pivalate] | 24 H | 100% | 2-24 H | <30 mg/kg | 1 mg/kg | 24 h | 100% |  |  |  |  |  |  |  |
| NCC1(CC(=O)O)CCCCC1 [Gabapentin] |  |  |  |  |  |  |  | 150 mg/kg | 4-6 H | >100% and 64% | 2-3 H | 150 mg/kg | 150 mg/kg | 150 mg/kg |
